Laboratory results from US20240181081A1, “Compositions and Methods for Treatment of Myotonic Dystrophy Type 1 with CRISPR/SACAS9” (Vertex Pharmaceuticals Incorporated, priority 2021, published 2024).

Assays:
[1] = system: CTG repeat expansion in the 3′ UTR of human DMPK gene; assay: DOUBLE-cut screening: CTG repeat excision by loss-of-signal ddPCR in primary DM1 patient myoblasts; format: cell-based; conditions: sgRNA pair RNP, mean of upstream and downstream ddPCR assays; for % of CTG repeat excision efficiency by ddPCR (DNA-PKi): 3 μM Compound 6 for 48 hrs; for % of CTG repeat excision efficiency by ddPCR (Vehicle): DMSO 48 hrs
Outline: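 Paired upstream/downstream sgRNAs, each as RNP with recombinant SaCas9 (20 pmol protein:60 pmol sgRNA), mixed 1:1 and nucleofected into primary DM1 myoblasts; cells then given DMSO or 3 μM DNA-PKi Compound 6 for 48 hrs. Genomic DNA taken 72 hrs post-nucleofection; excision is mean of upstream and downstream loss-of-signal ddPCR, normalized to DMPK exon 1 reference.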

[2] = system: CUG RNA foci in primary DM1 patient myoblasts; assay: DOUBLE-cut screening: FISH staining of RNA foci in primary DM1 patient myoblasts; format: cell-based, human; conditions: sgRNA pair RNP, 72 hrs post nucleofection; for % of CUG foci free nuclei (DNA-PKi): 3 μM Compound 6 for 48 hrs; for % of CUG foci free nuclei (Vehicle): DMSO 48 hrs
Outline: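 Primary DM1 patient myoblasts nucleofected with paired upstream/downstream sgRNA–SaCas9 RNPs (20 pmol protein, 60 pmol sgRNA each), then treated 48 hrs with DMSO or 3 μM DNA-PK inhibitor. At 72 hrs post nucleofection, CUG foci stained by Cy3-PNA(CAG)5 FISH with MBNL1 co-staining and quantified by high-content confocal imaging.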

SaU8 + SaD5: SaCas9 sgRNA pair, SEQ ID NOs: 8 and 13 (guide 1 GGCTCGAAGGGTCCTTGTAGCC; guide 2 GGGTTTGGCAAAAGCAAATTTC; listed as DNA, chemistry not fully specified)
% of CTG repeat excision efficiency by ddPCR (DNA-PKi) [1]: 58.77% | % of CTG repeat excision efficiency by ddPCR (Vehicle) [1]: 49.47% | % of CUG foci free nuclei (DNA-PKi) [2]: 84.28% | % of CUG foci free nuclei (Vehicle) [2]: 72.77%

SaU8 + SaD6: SaCas9 sgRNA pair, SEQ ID NOs: 8 and 14 (guide 1 GGCTCGAAGGGTCCTTGTAGCC; guide 2 CTTTTGCCAAACCCGCTTTTTC; listed as DNA, chemistry not fully specified)
% of CTG repeat excision efficiency by ddPCR (DNA-PKi) [1]: 40.19% | % of CTG repeat excision efficiency by ddPCR (Vehicle) [1]: 23.57% | % of CUG foci free nuclei (DNA-PKi) [2]: 65.28% | % of CUG foci free nuclei (Vehicle) [2]: 32.43%

SaU8 + SaD7: SaCas9 sgRNA pair, SEQ ID NOs: 8 and 15 (guide 1 GGCTCGAAGGGTCCTTGTAGCC; guide 2 GGGGCGCGGGATCCCCGAAAAA; listed as DNA, chemistry not fully specified)
% of CTG repeat excision efficiency by ddPCR (DNA-PKi) [1]: 53.42% | % of CTG repeat excision efficiency by ddPCR (Vehicle) [1]: 38.19% | % of CUG foci free nuclei (DNA-PKi) [2]: 82.90% | % of CUG foci free nuclei (Vehicle) [2]: 52.92%

SaU8 + SaD12: SaCas9 sgRNA pair, SEQ ID NOs: 8 and 20 (guide 1 GGCTCGAAGGGTCCTTGTAGCC; guide 2 TCAGTGCATCCAAAACGTGGAT; listed as DNA, chemistry not fully specified)
% of CTG repeat excision efficiency by ddPCR (DNA-PKi) [1]: 55.46% | % of CTG repeat excision efficiency by ddPCR (Vehicle) [1]: 36.64% | % of CUG foci free nuclei (DNA-PKi) [2]: 85.37% | % of CUG foci free nuclei (Vehicle) [2]: 76.92%

SaU8 + SaD15: SaCas9 sgRNA pair, SEQ ID NOs: 8 and 23 (guide 1 GGCTCGAAGGGTCCTTGTAGCC; guide 2 GACAATAAATACCGAGGAATGT; listed as DNA, chemistry not fully specified)
% of CTG repeat excision efficiency by ddPCR (DNA-PKi) [1]: 57.24% | % of CTG repeat excision efficiency by ddPCR (Vehicle) [1]: 39.47% | % of CUG foci free nuclei (DNA-PKi) [2]: 86.21% | % of CUG foci free nuclei (Vehicle) [2]: 76.50%

SaU8 + SaD17: SaCas9 sgRNA pair, SEQ ID NOs: 8 and 25 (guide 1 GGCTCGAAGGGTCCTTGTAGCC; guide 2 TTTATTCGCGAGGGTCGGGGGT; listed as DNA, chemistry not fully specified)
% of CTG repeat excision efficiency by ddPCR (DNA-PKi) [1]: 49.09% | % of CTG repeat excision efficiency by ddPCR (Vehicle) [1]: 30.50% | % of CUG foci free nuclei (DNA-PKi) [2]: 79.35% | % of CUG foci free nuclei (Vehicle) [2]: 52.34%

SaU8 + SaD18: SaCas9 sgRNA pair, SEQ ID NOs: 8 and 26 (guide 1 GGCTCGAAGGGTCCTTGTAGCC; guide 2 GGGCCTTTTATTCGCGAGGGTC; listed as DNA, chemistry not fully specified)
% of CTG repeat excision efficiency by ddPCR (DNA-PKi) [1]: 44.51% | % of CTG repeat excision efficiency by ddPCR (Vehicle) [1]: 18.17% | % of CUG foci free nuclei (DNA-PKi) [2]: 70.76% | % of CUG foci free nuclei (Vehicle) [2]: 36.66%

SaU8 + SaD19: SaCas9 sgRNA pair, SEQ ID NOs: 8 and 27 (guide 1 GGCTCGAAGGGTCCTTGTAGCC; guide 2 AGGACCCCCACCCCCGACCCTC; listed as DNA, chemistry not fully specified)
% of CTG repeat excision efficiency by ddPCR (DNA-PKi) [1]: 46.04% | % of CTG repeat excision efficiency by ddPCR (Vehicle) [1]: 28.95% | % of CUG foci free nuclei (DNA-PKi) [2]: 83.45% | % of CUG foci free nuclei (Vehicle) [2]: 61.41%

SaU8 +SaD3: SaCas9 sgRNA pair, SEQ ID NOs: 8 and 11 (guide 1 GGCTCGAAGGGTCCTTGTAGCC; guide 2 CAACGATAGGTGGGGGTGCGTG; listed as DNA, chemistry not fully specified)
% of CTG repeat excision efficiency by ddPCR (DNA-PKi) [1]: 59.28% | % of CTG repeat excision efficiency by ddPCR (Vehicle) [1]: 48.19% | % of CUG foci free nuclei (DNA-PKi) [2]: 82.41% | % of CUG foci free nuclei (Vehicle) [2]: 57.67%

SaU8 +SaD10: SaCas9 sgRNA pair, SEQ ID NOs: 8 and 18 (guide 1 GGCTCGAAGGGTCCTTGTAGCC; guide 2 TTGGGGGTCCTGTAGCCTGTCA; listed as DNA, chemistry not fully specified)
% of CTG repeat excision efficiency by ddPCR (DNA-PKi) [1]: 69.07% | % of CTG repeat excision efficiency by ddPCR (Vehicle) [1]: 48.45% | % of CUG foci free nuclei (DNA-PKi) [2]: 82.92% | % of CUG foci free nuclei (Vehicle) [2]: 74.46%

SaU8 +SaD11: SaCas9 sgRNA pair, SEQ ID NOs: 8 and 19 (guide 1 GGCTCGAAGGGTCCTTGTAGCC; guide 2 CAAAACGTGGATTGGGGTTGTT; listed as DNA, chemistry not fully specified)
% of CTG repeat excision efficiency by ddPCR (DNA-PKi) [1]: 47.57% | % of CTG repeat excision efficiency by ddPCR (Vehicle) [1]: 31.52% | % of CUG foci free nuclei (DNA-PKi) [2]: 70.97% | % of CUG foci free nuclei (Vehicle) [2]: 44.65%

SaU8 +SaD13: SaCas9 sgRNA pair, SEQ ID NOs: 8 and 21 (guide 1 GGCTCGAAGGGTCCTTGTAGCC; guide 2 CCCAACAACCCCAATCCACGTT; listed as DNA, chemistry not fully specified)
% of CTG repeat excision efficiency by ddPCR (DNA-PKi) [1]: 51.64% | % of CTG repeat excision efficiency by ddPCR (Vehicle) [1]: 29.46% | % of CUG foci free nuclei (DNA-PKi) [2]: 77.05% | % of CUG foci free nuclei (Vehicle) [2]: 43.66%

SaU8 +SaD20: SaCas9 sgRNA pair, SEQ ID NOs: 8 and 28 (guide 1 GGCTCGAAGGGTCCTTGTAGCC; guide 2 AGATGGAGGGCCTTTTATTCGC; listed as DNA, chemistry not fully specified)
% of CTG repeat excision efficiency by ddPCR (DNA-PKi) [1]: 62.59% | % of CTG repeat excision efficiency by ddPCR (Vehicle) [1]: 39.72% | % of CUG foci free nuclei (DNA-PKi) [2]: 81.21% | % of CUG foci free nuclei (Vehicle) [2]: 71.20%
